Values quoted from earlier work as cited in patent US11554003B2, “Filtration devices and methods related thereto” (The Regents of the University of California, priority 2015, dated 2023).

Details: IAC; regardless of infused dose

Structure (SMILES): COc1cccc2c1C(=O)c1c(O)c3c(c(O)c1C2=O)C[C@@](O)(C(=O)CO)C[C@@H]3O[C@H]1C[C@H](N)[C@H](O)[C@H](C)O1 [Dox, doxorubicin]
- first pass hepatic clearance: 50-70%
